Experimental data reported in patent US8846708B2, “Salt of a pyrimidin derivative” (Laboratorios Senosiain S.A. de C.V., priority 2010, dated 2014).

Legend:
[1] = cited from earlier work
physchem = assay: physchem
Method: Additionally, a comparative solubility test was performed between rosuvastatin calcium and rosuvastatin lysine.

[2] = Description / flowability of the salt powder; format: physicochemical
[3] = in vivo; cited from earlier work
proteins = settings: cited from earlier work

Row | Solubility, Methanol (physchem) | solubility (physchem; aqueous buffer) [µg/mL] | solubility (physchem; organic solvent or mixture) [µg/mL] | solubility (physchem; water) [µg/mL] | Description: flowability [2] | SMILES | Solubility in water [1] | Solubility, HCl 10% (physchem) | Absolute bioavailability [3] | Excretion in feces [3] [%] | Excretion in urine [3] [%] | Binding to proteins (proteins) [%]
1 |  |  |  |  |  | CC(C)c1nc(N(C)S(C)(=O)=O)nc(-c2ccc(F)cc2)c1/C=C/[C@@H](O)C[C@@H](O)CC(=O)O [Rosuvastatin, (3R,5S,6E)-7-[4-(4-fluorophenyl)-2-(N-methylmethanesulfonamide)-6-(propan-2-yl)pyrimidin-5-yl]-3,5-dihydroxihept-6-enoic acid] | slightly soluble in water |  |  |  |  | 
2 | Taffy | 600 | 10000 | 5300 | without flowability. | CC(C)c1nc(N(C)S(C)(=O)=O)nc(-c2ccc(F)cc2)c1/C=C/[C@@H](O)C[C@@H](O)CC(=O)O [rosuvastatin calcium, (3R,5S,6E)-7-[4-(4-fluorophenyl)-2-(N-methylmethanesulfonamide)-6-(propan-2-yl)pyrimidin-5-yl]-3,5-dihydroxihept-6-enoic acid] |  | It sticks to the bottom of the container. | approximately 20% | 90 | 10 | 88
